Several values for one entry are separate records, joined by “and”; a condition that tells them apart may be missing. Equal values may be shown once. Some results are limits rather than exact numbers.

These results are taken from US9320281B2, “Readied in situ glyphosate herbicide soluble powder composition and its preparation process” (ALLVET QUIMICA INDUSTRIAL LTDA., priority 2011, dated 2016).

The test system of one data set is Fish. The experiment in a line: Fish toxicology LC50, OECD 203, 96 h. The class given is in vivo. As to conditions: for Fish toxicology LC50: OECD 203, 96 h; for times less toxic for fish compared to a fatty amine ethoxylate: in vivo. The source says:
(§1) The low toxicity of coconut fatty acid copolymers with glycerol is illustrated by the following table

Another data set has as its system rabbits. In words: Eye irritation rabbits. As to conditions: rabbit, in vivo.
A further data set deals with daphnia. In words: Acute daphnia immobilization EC50, OECD 202. The following applies: for times less toxic for daphnia compared to a fatty amine ethoxylate: in vivo. The class given is in vivo.
Excerpt: as §1

For data set [1] the following is noted: cited from earlier work.
The subject of the next data set is variety of weeds. In words: Extensive field tests in Brazil and South Africa versus standard 360 g/liter liquid formulation. The class given is in vivo. The following applies: surfactant in the glyphosate formulation. As for the experimental part:
The product was extensively tested on the field. During eighteen months the soluble powder formulation was applied in different dosages on a variety of weeds in the state of Paraná, Brazil and in the province of […] in the Republic of South Africa and the results were compared with those obtained applying the standard product 360 g/liter liquid formulation side by side on the same fields.
More than one hundred field tests of the Soluble Powder were carried out. Each test consisted in applying different dosages of glyphosate acid on the field using the Soluble Powder object of the present invention and similar dosages of the standard 360 g/liter liquid formulation and comparing the results obtained side by side on the same field. Phytotoxicity of the weeds was measured by sampling and visual counting. All results were recorded and photographs taken before and after the tests.

Data set [2] can be described thus: 1,4-Dioxane content (carcinogen). The source says:
The inevitable presence of 1,4-dioxane in all ethoxylated products is the reason why all ethoxylates including coco amide ethoxylates were excluded from consideration in the product of the present invention.

The next data set concerns rats. The experiment in a line: Acute oral toxicology LD50 in rats. It counts as in vivo.

Consider Coco amide propyl amine oxide, for which, in the data set with Fish, the “Fish toxicology LC50” value was 6 mg/l and >6 mg/l; the “times less toxic for fish compared to a fatty amine ethoxylate” value was determined as 15 times. The compound also showed a Biodegradability in “Biodegradability” greater than 90%. Moreover, the Eye irritation rabbits result with rabbits is listed as “Irritant”. For the same compound, the “times less toxic for daphnia compared to a fatty amine ethoxylate” value in the data set with daphnia was 100 times.

With `O=C(O)CNCP(=O)(O)O` [Glyphosate, N-(phosphonomethyl)-glycine], the solubility in water entry in data set [1] is reported as “insoluble”.

The compound “coconut oil polymer with glyceryl and phthalic anhydride” displayed a Biodegradability in “Biodegradability” greater than 42%.

As for coco amide propyl betaine, in the data set on Fish, the “times less toxic for fish compared to a fatty amine ethoxylate” value came to 15 times. Also, in the data set on variety of weeds, the “efficiency as surfactant compared with coco amide propyl amine oxide” value is reported as “just as efficient”. In the data set with daphnia, the “times less toxic for daphnia compared to a fatty amine ethoxylate” value is 100 times.

Turning to “Fatty amine ethoxylate [reference compound]”, the “Fish toxicology LC50” value with Fish was 0.42 mg/l. Moreover, the Biodegradability in the data set “Biodegradability” is listed as less than 60%. In addition, the “1,4-Dioxane content (carcinogen)” value in data set [2] is “Up to 25,000 ppm”. Further, the “Acute oral toxicology LD50” value in the data set on rats is on record as 200-2000 mg/kg. For the same compound, the Eye irritation rabbits result in the data set with rabbits is “Serious eye”. In addition, the “Acute daphnia immobilization EC50” value in the data set on daphnia (OECD 202) turned out to be 0.46 µg/mL.
